Laboratory results from US20130096067A1, “DROSOPHILA TUMOR STEM CELL MODEL AND USES THEREOF” (priority 2011, published 2013).
Counter-ions that a name gives are not always drawn. Like-named read-outs stand apart in the source and are kept apart here. Peptide text beside a SMILES is read from it. * marks the point of attachment. Cbz = O=C(OCc1ccccc1)*

Test system: Raf-1^gof intestinal tumors
Conditions: for Log2 (fold) of luciferase activity relative to DMSO controls / Fold (luciferase activity relative to DMSO controls): ICCB compounds fed in vials to flies with one-day old Raf-1^gof tumors
[1] = assessed three days later, averaged from multiple wells
[2] = screen of 480 ICCB compounds in vials, compounds fed to flies with one-day old Raf-1^gof tumors, assessed three days later, esg-Gal4 luciferase
[3] = screen of 480 ICCB compounds in vials, compounds fed to flies with one-day old Raf-1^gof tumors, assessed three days later, esg-Gal4 luciferase, averaged from multiple wells
Throughout, for Fold (luciferase activity relative to DMSO controls): test concentration or dose not given here.
Throughout, for Fold (luciferase activity, fold difference relative to DMSO controls): test concentration or dose not given here.
Throughout, for Log2 (fold) (luciferase activity, log2 of the fold difference relative to DMSO controls): test concentration or dose not given here.
Throughout, for Log2 (fold) of luciferase activity relative to DMSO controls: test concentration or dose not given here.

Compound | Log2 (fold) (luciferase activity, log2 of the fold difference relative to DMSO controls) [2] | Fold (luciferase activity, fold difference relative to DMSO controls) [3] | further results
CC/C=C\C/C=C\C/C=C\CCCCCCCC(=O)O [LINOLENIC ACID (18:3 n-3)] | – | – | Log2 (fold) of luciferase activity relative to DMSO controls (assessed three days later): 0.096; Fold (luciferase activity relative to DMSO controls) [1]: 1.069 fold
CCCCC[C@H](O)/C=C/C=C\C=C\C=C\[C@@H](O)[C@@H](O)CCCC(=O)O [LIPOXIN A4] | – | – | Log2 (fold) of luciferase activity relative to DMSO controls (assessed three days later): 0.046; Fold (luciferase activity relative to DMSO controls) [1]: 1.033 fold
CN(C)C(=O)C(CCN1CCC(O)(c2ccc(Cl)cc2)CC1)(c1ccccc1)c1ccccc1 [LOPERAMIDE] | – | – | Fold (luciferase activity, fold difference relative to DMSO controls) (in vivo): 0.786; Log2 (fold) (luciferase activity, log2 of the fold difference relative to DMSO controls) (in vivo): −0.347
CCCCCCCCCCCCCCCCOC[C@@H](O)COP(=O)([O-])OCC[N+](C)(C)C [LYSO-PAF C16] | – | – | Log2 (fold) of luciferase activity relative to DMSO controls (assessed three days later): −0.087; Fold (luciferase activity relative to DMSO controls) [1]: 0.941 fold
C/C1=C/C(=O)O[C@@H]2C[C@@H](CC[C@H](C)/C=C\CC1)O[C@@](O)([C@@H]1CSC(=O)N1)C2 [Latrunculin B, reference compound] | −1.064 | 0.478 | Fold (Table 3 summary of hits, Screen ICCB, luciferase relative to DMSO, fed three consecutive days in vials): 0.478 fold
O=C(O)c1cc(N(Cc2ccccc2O)Cc2cc(O)ccc2O)ccc1O [Lavendustin A] | −0.297 | 0.814 | –
CC(=O)N[C@@H](CC(C)C)C(=O)N[C@@H](CC(C)C)C(=O)N[C@H](C=O)CCCNC(=N)N [Leupeptin] | – | – | Log2 (fold) of luciferase activity relative to DMSO controls (assessed three days later): −0.038; Fold (luciferase activity relative to DMSO controls) [1]: 0.974 fold
CCCCCCCCCCCCCC(=O)N[C@H](C)[C@@H](O)c1ccccc1 [MAPP, D-erythro] | −0.266 | 0.832 | –
CCCCCCCCCCCCCC(=O)N[C@@H](C)[C@H](O)c1ccccc1 [MAPP, L-erythro] | – | – | Log2 (fold) of luciferase activity relative to DMSO controls (assessed three days later): 0.104; Fold (luciferase activity relative to DMSO controls) [1]: 1.075 fold
Clc1ccc2ncnc(NCc3ccc4c(c3)OCO4)c2c1 [MBCQ] | – | – | Log2 (fold) of luciferase activity relative to DMSO controls (assessed three days later): 0.195; Fold (luciferase activity relative to DMSO controls) [1]: 1.145 fold
CC1=NN(c2ccccc2)C(=O)C1 [MCI-186] | – | – | Log2 (fold) of luciferase activity relative to DMSO controls (assessed three days later): −0.200; Fold (luciferase activity relative to DMSO controls) [1]: 0.871 fold
CCCCCCCC/C=C\C/C=C\C/C=C\CCCC(=O)O [MEAD ACID (20:3 n-9)] | −0.279 | 0.824 | –
CCCCCCCC/C=C\C/C=C\C/C=C\CCCC(=O)NCCO [MEAD ETHANOLAMIDE] | −0.322 | 0.800 | –
COC(C)(C)CCCC(C)C/C=C/C(C)=C/C(=O)O (stereo not drawn) [METHOPRENE ACID] | −0.328 | 0.796 | –
CC(C)C[C@@H](C=O)NC(=O)[C@H](CC(C)C)NC(=O)[C@H](CC(C)C)NC(=O)OCc1ccccc1 [MG-132] (Cbz-Leu-Leu-Leu-aldehyde) | – | – | Log2 (fold) of luciferase activity relative to DMSO controls (assessed three days later): 0.097; Fold (luciferase activity relative to DMSO controls) [1]: 1.070 fold
Nc1cc(N2CCCCC2)nc(N)[n+]1OS(=O)(=O)[O-] [MINOXIDIL SULFATE] | −0.417 | 0.749 | –
Nc1cc(N2CCCCC2)nc(N)[n+]1[O-] [MINOXIDIL] | −0.292 | 0.817 | –
O=S(=O)(c1cccc2c(I)cccc12)N1CCCNCC1 [ML7] | – | – | Log2 (fold) of luciferase activity relative to DMSO controls (assessed three days later): 0.192; Fold (luciferase activity relative to DMSO controls) [1]: 1.143 fold
O=S(=O)(c1cccc2c(Cl)cccc12)N1CCCNCC1 [ML9] | −0.458 | 0.728 | –
Clc1cccc(Nc2nnc(-c3ccccc3)c3ccccc23)c1 [MY-5445] | – | – | Log2 (fold) of luciferase activity relative to DMSO controls (assessed three days later): −0.037; Fold (luciferase activity relative to DMSO controls) [1]: 0.975 fold

Compound | Log2 (fold) (luciferase activity, log2 of the fold difference relative to DMSO controls) [2] | Fold (luciferase activity, fold difference relative to DMSO controls) [3] | further results
CC1=C(CC/C(C)=C/CCC2=CC[C@H](C3=CC(=O)O[C@H]3O)O[C@H]2O)C(C)(C)CCC1 [Manoalide] | −0.490 | 0.712 | –
CC[C@H](C)C(=O)O[C@H]1C[C@@H](C)C=C2C=C[C@H](C)[C@H](CC[C@@H]3C[C@@H](O)CC(=O)O3)[C@H]21 [Mevinolin (lovastatin)] | −0.512 | 0.701 | –
Cc1[nH]c(=O)c(C#N)cc1-c1ccncc1 [Milrinone] | −0.615 | 0.653 | –
O=C(O)c1ccc(/C2=C3\C=CC(=N3)/C(c3ccc(C(=O)O)cc3)=c3/cc/c4[n]3[Mn]([Cl])[n]3c2ccc3/C(c2ccc(C(=O)O)cc2)=C2/C=CC(=N2)\C=4c2ccc(C(=O)O)cc2)cc1 [MnTBAP] | −0.245 | 0.844 | –
CCOC(=O)C1=C(C)NC(=S)NC1c1cccc(O)c1 (stereo not drawn) [Monastrol] | −0.607 | 0.656 | –
COc1c(C)c2c(c(O)c1C/C=C(\C)CCC(=O)O)C(=O)OC2 [Mycophenolic acid] | −0.577 | 0.670 | –
CC(C)n1cnc2c(NCc3ccccc3)nc(NCCO)nc21 [N9-Isopropylolomoucine] | −0.490 | 0.712 | –
CCCCCCCCCCCCC/C=C/[C@@H](O)[C@H](CO)N(C)C [N,N-DIMETHYLSPHINGOSINE] | −0.487 | 0.713 | –
CCCCC/C=C\C\C=C/C=C/C=C/[C@@H](SCC(NC(C)=O)C(=O)O)[C@@H](O)CCCC(=O)O (stereo partly drawn) [N-ACETYL-LEUKOTRIENE E4] | −0.318 | 0.802 | –
CCCCC/C=C\C/C=C\C/C=C\C/C=C\CCCC(=O)NCC(=O)O [N-ARACHIDONOYLGLYCINE] | – | – | Fold (luciferase activity, fold difference relative to DMSO controls) (in vivo): 0.664; Log2 (fold) (luciferase activity, log2 of the fold difference relative to DMSO controls) (in vivo): −0.590
CCCCC/C=C\C/C=C\CCCCCCCC(=O)NCC(=O)O [N-LINOLEOYLGLYCINE] | −0.285 | 0.821 | –
COC(=O)C1=C(C)NC(C)=C(C(=O)OCCN(C)Cc2ccccc2)C1c1cccc([N+](=O)[O-])c1 (stereo not drawn) [NICARDIPINE] | −0.433 | 0.741 | –
COC(=O)C1=C(C)NC(C)=C(C(=O)OC)C1c1ccccc1[N+](=O)[O-] [NIFEDIPINE] | −0.417 | 0.749 | –
O=C(O)c1cccnc1Nc1cccc(C(F)(F)F)c1 [NIFLUMIC ACID] | – | – | Log2 (fold) of luciferase activity relative to DMSO controls (assessed three days later): −0.201; Fold (luciferase activity relative to DMSO controls) [1]: 0.870 fold
COC(=O)C1=C(C)NC(C)=C(C(=O)OCCCN2CCC(c3ccccc3)(c3ccccc3)CC2)[C@H]1c1cccc([N+](=O)[O-])c1 [NIGULDIPINE] | – | – | Fold (luciferase activity, fold difference relative to DMSO controls) (in vivo): 0.812; Log2 (fold) (luciferase activity, log2 of the fold difference relative to DMSO controls) (in vivo): −0.301
COCCOC(=O)C1=C(C)NC(C)=C(C(=O)OC(C)C)C1c1cccc([N+](=O)[O-])c1 (stereo not drawn) [NIMODIPINE] | −0.238 | 0.848 | –
CCOC(=O)C1=C(C)NC(C)=C(C(=O)OC)C1c1cccc([N+](=O)[O-])c1 (stereo not drawn) [NITRENDIPINE] | −0.400 | 0.758 | –
O=C(O)c1cc([N+](=O)[O-])ccc1NCCCc1ccccc1 [NPPB] | −0.439 | 0.738 | –
CS(=O)(=O)Nc1ccc([N+](=O)[O-])cc1OC1CCCCC1 [NS-398] | −0.592 | 0.663 | –
O=c1[nH]c2cc(C(F)(F)F)ccc2n1-c1cc(C(F)(F)F)ccc1O [NS-1619] | −0.495 | 0.709 | –
